Laboratory results reported in a melting point compilation (Tetko et al.; mined from patent text by program, amines drawn as free bases though some values may be those of a salt).

| melting point | SMILES |
| --- | --- |
| 201 to 205 °C | CN1CCN(CCC2C(=O)NC(c3ccc(Cl)cc3)c3ccccc32)CC1 (stereo not given) |
| 149 to 151 °C | O=C(CCc1ccccc1)Nc1ccc(Br)cc1 |
| 200 to 202 °C | Oc1ccc2c(c1)CCCC(c1ccccc1)=C2c1ccc(OCCCCCCl)cc1 |
| 106 to 107 °C | O=[N+]([O-])c1ccc(Oc2ccccc2)c(Cl)c1Oc1ccccc1 |
| 55 to 56 °C | O=C1C[C@@H](C(=O)OCc2ccccc2)N(C(=O)OCc2ccccc2)C1 |
| 233 to 235 °C | CN(Cc1ccc(NC(=O)C2=Cc3cc(-c4ccc(S(C)(=O)=O)cc4)ccc3OCC2)cc1)C1CCOCC1 |
| 173 to 175 °C | CN1CCC2(CC1)SC(C(C(=O)OC(C)(C)C)N1C(=O)c3ccccc3C1=O)NC2C(=O)OCc1ccccc1 (stereo not given) |
| 116 to 119 °C | COc1cc(C2=CCCCC2)c(Cl)cc1C(=O)N1Cc2ccc(C(=O)N(C)CCCN(C)C)n2Cc2ccccc21 |
| 163 °C | COc1ccc(Sc2cnnc3ccccc23)cc1 |
| 122 to 125 °C | O=C(O)CC/C=C/c1nn(-c2ccccc2)c2c1CCC2 |
| 97 to 99 °C | O=C(Nc1cccnc1Nc1ccc(CCNC[C@H](O)COc2ccc(O)cc2)cc1)c1ccccc1 |
| 117 to 118 °C | C/C(=C\C=C\Cn1oc(=O)[nH]c1=O)c1cccc(OCc2nc(-c3ccccc3)oc2C)c1 |
| 158 to 159 °C | CCOC(=O)c1cccc2nc(OCC)n(Cc3ccc(-c4ccccc4-c4nnn[nH]4)cc3)c12 |
| 168 to 170 °C | CCCc1cc(C(=O)NCc2ccccn2)ccc1OC(C(=O)NS(=O)(=O)c1ccc(C(C)C)cc1)c1ccc2c(c1)OCO2 (stereo not given) |
| 125 to 127 °C | COC(=O)c1cc2n(c1)CCc1ccccc1C2=O |

The remaining lines, values behind:

| SMILES | melting point |
| --- | --- |
| CN(C)CCNC(=O)Cc1ccc(NC(=O)Cc2ccc([N+](=O)[O-])cc2)cc1 | 160 to 162 °C |
| COc1cc(OC)nc(NC(=O)NS(=O)(=O)c2ccccc2Cc2nnc(SC)s2)n1 | 171 to 175 °C |
| COCc1cc2c(-c3ccc(C(F)(F)F)n(C)c3=O)c(F)cc(Cl)c2o1 | 136 to 137 °C |
| COc1cc(O)ccc1C=CC(=O)CC(C)=O | 139 to 142 °C |
| COc1ccc2cccc(C(CO)CNC(=O)C3CC3)c2c1 (stereo not given) | 153 to 154 °C |
| Cc1cc(C(Cl)=NO)ccc1Br | 77 to 78 °C |
| Nc1ccc(F)cc1Nc1ccc(F)cc1 | 83 to 84 °C |
| CCOC(=O)CSc1ncnc2c(O)n(C(C)(C)C)nc12 | 129 to 131 °C |
| O=C1CN=C(c2ccc(O)cc2)c2cc(Cl)ccc2N1 | 271 to 272 °C |
| CCCCSc1cc([N+](=O)[O-])cc2c1C(=O)OC2=O | 95 to 97 °C |
| Cc1cc2c(cc1Br)nc1n2CCC1 | 167 to 170 °C |
| CCOC(=O)C(=O)Nc1cccc(NC(=O)C(=O)OCC)n1 | 179 to 180 °C |
| Cc1c(Br)cc2c(c1C)OCC2c1ccc(C(C)C)cc1 (stereo not given) | 114 to 115 °C |
| CCOC(=O)CSc1nc(O)ns1 | 131 °C |
| COC(=O)c1ccc2c(c1)CN(c1c(F)cc3c(=O)c(C(=O)O)cn(-c4ccc(F)cc4F)c3c1F)C2 | 248 to 251 °C |
| NC(=O)c1ccc(-c2cnc3[nH]c(=O)n(CCC4CCOCC4)c3n2)cc1 | 233 to 236 °C |
| Fc1ccc(C(F)(F)C(F)(F)c2ccccc2Br)cc1 | 52 to 53.5 °C |
| CCOC(=O)CC(NC(=O)c1ccc(C)cc1)C(=O)c1ccco1 (stereo not given) | 83.5 to 84.5 °C |
| COc1ccc2nc(NC(=O)C(CC3CCCC3)c3ccc(S(=O)(=O)N(C(C)C)C(C)C)cc3)sc2n1 (stereo not given) | 83 to 85 °C |
| CC(=O)Nc1c(C(=O)c2cccc(C(N)=O)c2)[nH]c2cc(Cl)ccc12 | 243 to 247 °C |
| CC(=O)OCCn1cncc1[N+](=O)[O-] | 61 to 62 °C |
| O=C([C@H]1CCc2cc(Cl)c(Cl)cc21)N1CCSC[C@H]1CN1CCCC1 | 123 to 124 °C |
| CC(C)(C)OC(=O)Nc1ccn2nc(N3CCCC3)nc2c1 | 216 to 219 °C |
| c1cncc(-c2noc(-c3ccco3)n2)c1 | 110 to 114 °C |
| Nc1cc2c(cc1F)OC(=O)CN2 | > 250 °C |
